Laboratory results taken from US8211929B2, “Pyrimidine derivatives as kinase modulators and method of use” (Exelixis, Inc., priority 2004, dated 2012).
pIC50: −log10 of the molar value. Read-outs that look alike come from different tables or passages of the source.

Experiments:
IGF 3P = molecular target: T1, IGF 3P (Homo sapiens, UniProt P08069); assay: IGF1R kinase assay (LCCA), IGF 3P; format: biochemical
T1 construct: human IGF1R kinase domain residues M954-C1367; made in house; host or cells: baculovirus expression (insect cells)
Method in brief: (§1)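 Read-out is percent ATP remaining, detected by luciferase-luciferin luminescence after a 2 h ambient reaction. Reaction contained 4 nM IGF1R kinase domain (residues M954-C1367, baculovirus-made), 3 μM ATP (near KM), 4 μM poly EY, pH 7.5 with Mg2+/Mn2+. Ten inhibitor concentrations; IC50 by Hill-type curve fit.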

[1] = molecular target: T2, (Homo sapiens, UniProt P08069); assay: IGF1R kinase assay (LCCA), IGF 0P; format: biochemical
T2 construct: human IGF1R kinase domain residues M954-C1367; made in house; host or cells: baculovirus expression (insect cells)
Method in brief: as §1

T1 sequence (P08069 954-1367): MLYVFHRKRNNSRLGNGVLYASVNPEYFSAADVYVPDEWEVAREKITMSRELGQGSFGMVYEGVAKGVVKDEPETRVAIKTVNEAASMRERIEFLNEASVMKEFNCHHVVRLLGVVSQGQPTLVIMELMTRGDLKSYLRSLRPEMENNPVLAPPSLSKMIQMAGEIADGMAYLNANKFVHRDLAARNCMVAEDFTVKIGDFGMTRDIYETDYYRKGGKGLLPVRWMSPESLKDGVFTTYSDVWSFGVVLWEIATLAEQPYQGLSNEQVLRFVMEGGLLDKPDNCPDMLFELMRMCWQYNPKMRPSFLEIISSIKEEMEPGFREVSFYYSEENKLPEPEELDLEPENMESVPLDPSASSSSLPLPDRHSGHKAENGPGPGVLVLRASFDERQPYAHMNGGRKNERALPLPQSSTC
T2 sequence (P08069 954-1367): as above

| Compound | pIC50 (IGF 3P; IGF1R kinase LCCA assay) | pIC50 ([1]; IGF1R kinase LCCA assay) | also measured |
| --- | --- | --- | --- |
| CN1CCN(c2cc(Nc3cc(C4CC4)n[nH]3)nc(NCc3cc(-c4ccc(F)cc4)no3)n2)CC1 [Example 605, N^4-(3-cyclopropyl-1H-pyrazol-5-yl)-N^2-{[3-(4-fluorophenyl)isoxazol-5-yl]methyl}-6-(4-methylpiperazin-1-yl)pyrimidine-2,4-diamine] |  |  | pIC50 (IGF 3P): > 7.30; pIC50 [1]: 6.30 to 7.30 |
| CC(C)c1cc(CNc2nc(Nc3cc(C4CC4)n[nH]3)cc(N3CCC(CCO)CC3)n2)on1 [Example 662, 2-(1-{6-[(3-cyclopropyl-1H-pyrazol-5-yl)amino]-2-({[3-(1-methylethyl)isoxazol-5-yl]methyl}amino)pyrimidin-4-yl}piperidin-4-yl)ethanol] |  |  | pIC50 (IGF 3P): > 7.30; pIC50 [1]: 6.30 to 7.30 |
| Cc1cc(C)cc(Nc2ncc(Br)c(Nc3cc(C4CC4)n[nH]3)n2)c1 [Example 134] | 6.30 to 7.30 | 5.30 to 6.30 |  |
| CN(C)C(=O)Oc1cccc(Nc2ncc(Br)c(Nc3cc(C4CC4)n[nH]3)n2)c1 [Example 35] | 6.30 to 7.30 | 6.30 to 7.30 |  |
| Cc1cc(Nc2cc(C3CC3)n[nH]2)nc(Nc2cc(F)cc(F)c2)n1 [Example 259] | < 5.30 | 5.30 to 6.30 |  |
| c1ccc(-c2cc(CNc3nc(Nc4cc(C5CC5)n[nH]4)cc(OCCN4CCCC4)n3)on2)cc1 [Example 514] |  |  | pIC50 (IGF 3P; IGF1R kinase LCCA assay, IGF 3P): > 7.30; pIC50 ([1]; IGF1R kinase LCCA assay, IGF 0P): 6.30 to 7.30 |
| Fc1cnc(Nc2ccccc2Cl)nc1Nc1cc(C2CC2)[nH]n1 [Example 168] | 5.30 to 6.30 | 6.30 to 7.30 |  |
| Fc1ccc(-c2cc(CNc3nc(Nc4cc(C5CC5)n[nH]4)cc(N4CCOCC4)n3)on2)cc1 [Example 604, N^4-(3-cyclopropyl-1H-pyrazol-5-yl)-N^2-{[3-(4-fluorophenyl)isoxazol-5-yl]methyl}-6-morpholin-4-ylpyrimidine-2,4-diamine] |  |  | pIC50 (IGF 3P): > 7.30; pIC50 [1]: 6.30 to 7.30 |
| Brc1cnc(NCC2CCCO2)nc1Nc1cc(C2CC2)n[nH]1 (stereo not drawn) [Example 201] | 5.30 to 6.30 | < 5.30 |  |
| c1cc(N2CCOCC2)ccc1Nc1nc2c(c(Nc3cc(C4CC4)[nH]n3)n1)CCNC2 [Example 282] | < 5.30 | < 5.30 |  |
| CC(C)(C)c1cc(Nc2nc(NCc3cc(-c4ccccc4)no3)ncc2Br)n[nH]1 [Example 16] | 5.30 to 6.30 | 6.30 to 7.30 |  |
| CN1CCN(c2cc(Nc3cc(C4CC4)[nH]n3)nc(NCc3cc(-c4ccncn4)no3)n2)CC1 [Example 628, N^4-(5-cyclopropyl-1H-pyrazol-3-yl)-6-(4-methylpiperazin-1-yl)-N^2-[(3-pyrimidin-4-ylisoxazol-5-yl)methyl]pyrimidine-2,4-diamine] |  |  | pIC50 (IGF 3P): > 7.30; pIC50 [1]: 6.30 to 7.30 |
| N#Cc1ccc(Nc2ncc(Cl)c(Nc3cc(C4CC4)[nH]n3)n2)cc1 [Example 117] | 6.30 to 7.30 | 6.30 to 7.30 |  |
| CC(C)c1cc(Nc2cc(N3CCOCC3)nc(NCc3cc(-c4ccc(F)cc4)no3)n2)[nH]n1 [Example 607, N^2-{[3-(4-fluorophenyl)isoxazol-5-yl]methyl}-N^4-[3-(1-methylethyl)-1H-pyrazol-5-yl]-6-morpholin-4-ylpyrimidine-2,4-diamine] |  |  | pIC50 (IGF 3P): > 7.30; pIC50 [1]: 6.30 to 7.30 |
| O=C(Nc1ccc(N2CCOCC2)cc1)c1nc(Nc2ccccc2Cl)nc(Nc2cc(C3CC3)n[nH]2)c1[N+](=O)[O-] [Example 278] | < 5.30 | < 5.30 |  |
| Brc1cnc(Nc2ccc3c(c2)CCC3)nc1Nc1cc(C2CC2)[nH]n1 [Example 180] | 5.30 to 6.30 | 5.30 to 6.30 |  |
| Nc1ncnc2c1c(-c1cccc(OCc3ccccc3)c1)cn2C1CNC1 [Example 348] | 5.30 to 6.30 | < 5.30 |  |
| CCN(CC)CCNC(=O)CCc1ccc(Nc2ncc(Br)c(Nc3ccccc3)n2)cc1 [Example 541] | > 7.30 | 6.30 to 7.30 |  |
| Cc1cc(Nc2cc(C3CC3)[nH]n2)nc(NCc2cc(C(C)C)no2)n1 [Example 50] | > 7.30 | 5.30 to 6.30 |  |
| Nc1ncnc2c1c(-c1ccc(NC(=O)C3(C(=O)Nc4ccc(F)cc4)CC3)cc1)cn2CC1CC2CNCC2C1 (stereo not drawn) [Example 347] | < 5.30 | < 5.30 |  |

| Compound | pIC50 (IGF 3P; IGF1R kinase LCCA assay) | pIC50 ([1]; IGF1R kinase LCCA assay) | also measured |
| --- | --- | --- | --- |
| Nc1nc(Nc2ccc(N3CCOCC3)cc2)ncc1Br [Example 287] | < 5.30 | < 5.30 |  |
| Clc1cccc(-c2ncc(CNc3ncc(Br)c(Nc4cc(C5CC5)[nH]n4)n3)s2)c1 [Example 290] | < 5.30 | < 5.30 |  |
| Clc1ccccc1Nc1ncc(Br)c(Nc2cc[nH]n2)n1 [Example 192] | 5.30 to 6.30 | 5.30 to 6.30 |  |
| c1ccc(CN2CCc3c(nc(NCc4cc(-c5ccccc5)no4)nc3Nc3cc(C4CC4)[nH]n3)C2)cc1 [Example 242] | 5.30 to 6.30 | 5.30 to 6.30 |  |
| Clc1c(Nc2cc(C3CC3)n[nH]2)nc(NCc2cc(-c3ccccc3)no2)nc1N1CCOCC1 [Example 624, 5-chloro-N^4-(3-cyclopropyl-1H-pyrazol-5-yl)-6-morpholin-4-yl-N^2-[(3-phenylisoxazol-5-yl)methyl]pyrimidine-2,4-diamine] |  |  | pIC50 (IGF 3P): 6.30 to 7.30; pIC50 [1]: 6.30 to 7.30 |
| Brc1cnc(NC2CCc3ccccc32)nc1Nc1cc(C2CC2)[nH]n1 (stereo not drawn) [Example 25] | 5.30 to 6.30 | 6.30 to 7.30 |  |
| CC(C)c1cc(CNc2nc(Nc3cc(C(C)C)[nH]n3)cc(OCCN3CCOCC3)n2)on1 [Example 587, N-{[3-(1-methylethyl)isoxazol-5-yl]methyl}-N^4-[5-(1-methylethyl)-1H-pyrazol-3-yl]-6-[(2-morpholin-4-ylethyl)oxy]pyrimidine-2,4-diamine] |  |  | pIC50 (IGF 3P): > 7.30; pIC50 [1]: 5.30 to 6.30 |
| CN(C)C(=O)CCc1ccc(Nc2ncc(Br)c(Nc3cc(C4CC4)n[nH]3)n2)cc1 [Example 76] | 6.30 to 7.30 | 6.30 to 7.30 |  |
| Cc1cc(Nc2cc(C3CC3)n[nH]2)nc(Nc2ccc(CCNC(=O)OC(C)(C)C)cc2)n1 [Example 568] | 5.30 to 6.30 | 5.30 to 6.30 |  |
| Cc1cc(Nc2cc(C3CC3)n[nH]2)nc(Nc2ccc(N3CCOCC3)cc2)n1 [Example 268] | < 5.30 | < 5.30 |  |
| Nc1ncnc2c1c(-c1cccc(OCc3ccccc3)c1)cn2CC1CC2CN(C(=O)OCc3ccccc3)CC2C1 (stereo not drawn) [Example 356] | < 5.30 | < 5.30 |  |
| Brc1cnc(NCc2cc(-c3ccccc3)no2)nc1Nc1cc(C2CC2)[nH]n1 [Example 14] | 6.30 to 7.30 | 6.30 to 7.30 |  |
| FC(F)(F)c1ccc(-c2ncc(CNc3ncc(Br)c(Nc4cc(C5CC5)[nH]n4)n3)s2)cc1 [Example 288] | < 5.30 | < 5.30 |  |
| CC(C)(C)c1cc(Nc2nc(Nc3ccccc3)ncc2Br)n[nH]1 [Example 116] | 6.30 to 7.30 | 5.30 to 6.30 |  |
| Clc1ccc(-c2cc(CNc3ncc(Br)c(Nc4cc(C5CC5)[nH]n4)n3)on2)cc1 [Example 275] | < 5.30 | 5.30 to 6.30 |  |
| NCCCCn1cc(-c2cccc(OCc3ccccc3)c2)c2c(N)ncnc21 [Example 344] | 5.30 to 6.30 | < 5.30 |  |
| Cc1cc(Nc2cc(C3CC3)n[nH]2)nc(Nc2cc(C(F)(F)F)cc(C(F)(F)F)c2)n1 [Example 300] | < 5.30 | < 5.30 |  |
| Cc1cc(Nc2ccnc(Nc3ccc(N4CCOCC4)cc3)n2)no1 [Example 113] | 6.30 to 7.30 | 5.30 to 6.30 |  |
| Brc1cnc(NCc2cc(-c3ccccc3)no2)nc1Nc1ccccc1 [Example 292] | < 5.30 | < 5.30 |  |
